The results in this text go back to US9359347B2, “Inhibitors of Akt/PKB with anti-tumor activity” (University of South Florida, priority 2007, dated 2016).

Data set [1] deals with T1, Akt (Homo sapiens, UniProt P31749).
T1 construct: expressed in transfected cells; host or cells: HeLa
As to the kind of experiment: IGF-1 induced plasma membrane translocation of Akt in Myc-AKT1 transfected HeLa cells. Conditions: Myc-AKT1, 30 min prior to IGF1 for 15 minutes. Format: cell-based. The protocol:
HeLa cells were transfected on coverslips with Myc-AKT1, serum-starved overnight and then treated with (FIG. 6C) or without (FIG. 6B) AKT-SI1 for 30 min prior to stimulation with IGF1 for 15 minutes. Following fixation, cells were immuno-stained with the anti-Myc monoclonal antibody, followed by a FITC-conjugated secondary antibody to reveal the presence of the epitope-tagged protein in the cytosol or membrane (FIG. 6B). Cells without treatment with AKT-SI1 and IGF1 were used as control (FIG. 6A).

The target in data set [2] is T2, constitutively active Myc-AKT1-E17K (Homo sapiens, UniProt P31749, E17K). The conditions noted are these: Myc-AKT1-E17K transfected HEK 293 cells.
T2 sequence (P31749 whole entry E17K): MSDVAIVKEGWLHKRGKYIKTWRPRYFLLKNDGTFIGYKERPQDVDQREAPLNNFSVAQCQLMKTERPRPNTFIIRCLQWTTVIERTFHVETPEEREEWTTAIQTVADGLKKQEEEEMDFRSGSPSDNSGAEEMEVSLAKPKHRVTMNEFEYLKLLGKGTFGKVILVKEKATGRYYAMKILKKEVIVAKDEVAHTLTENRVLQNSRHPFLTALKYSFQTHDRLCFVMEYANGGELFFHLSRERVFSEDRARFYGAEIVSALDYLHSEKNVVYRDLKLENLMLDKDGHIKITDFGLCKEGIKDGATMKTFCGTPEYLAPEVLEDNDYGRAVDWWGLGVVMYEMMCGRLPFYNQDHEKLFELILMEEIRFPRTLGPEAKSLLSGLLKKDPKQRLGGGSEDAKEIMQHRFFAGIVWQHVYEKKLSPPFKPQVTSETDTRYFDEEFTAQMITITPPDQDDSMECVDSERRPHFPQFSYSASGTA
Data set [3] concerns the target T2, constitutively active Myc-AKT1-E17K. As to the kind of experiment: In vitro kinase assay of anti-Myc immunoprecipitates from Myc-AKT1-E17K transfected HEK293 cells. Conditions: HEK293, Histone H2B substrate.
Protocol: (§4) Nevertheless, we compared their capability of inhibiting Akt. HEK293 cells were transfected with wild-type Myc-AKT1 (FIGS. 7B and 7C) and constitutively active Myc-AKT1-E17K (FIGS. 7D and 7E). Following 36 h incubation, cells were serum starved overnight. […] Immunoprecipitation was carried out with anti-Myc antibody and the immunoprecipitates were subjected to in vitro kinase assay using Histone H2B as substrate (top). […] The experiments were repeated three times.
Data set [4] deals with T3, wild-type Myc-AKT1 (Homo sapiens, UniProt P31749). Nature of the data set: In vitro kinase assay of anti-Myc immunoprecipitates from wild-type Myc-AKT1 transfected HEK293 cells. Conditions: wild-type Myc-AKT1, HEK293, 30 min then EGF 15 min, Histone H2B substrate.
T3 sequence (P31749 whole entry): as the sequence (P31749 whole entry E17K) above, with K17E counted along it
Protocol: as §4
Another data set has as its system Akt downstream targets. As to the kind of experiment: Phosphorylation of Akt downstream targets (FIG. 3C). In kind it is cell-based.
The target of a further data set is mTORC1 (Homo sapiens, UniProt P42345). Nature of the data set: Interference with mTORC1 complex (FIG. 3D).
The target in data set [5] is T3, wild-type Myc-AKT1. The conditions noted are these: wild-type Myc-AKT1 transfected HEK 293 cells.
A further data set deals with mTORC2 (Homo sapiens, UniProt P42345). Nature of the data set: Interference with mTORC2 complex (FIG. 3D).
The next data set deals with PANC1 tumors. Nature of the data set: Nude mouse tumor xenograft model, PANC1. In kind it is in vivo, nude mice. Conditions: 10 mg/kg/day i.p.
The subject of a further data set is MCF7. Nature of the data set: Cell proliferation MTT assay, MCF7. Format: cell-based, human. Conditions: MCF7, 24 hours. The protocol: (§1) The blots were reprobed with anti-actin antibody (bottom panel). FIGS. 4B and 4C are cell proliferation assays in which indicated cell lines were treated with different doses of API-1 for 24 hours and then analyzed with MTT assay. FIGS. 4D-4G show an apoptosis analysis in which cells were treated with API-1 and stained with annexin V and PI and analyzed by FACScan.
(§2) In vitro kinase was performed as previously described (Jiang et al. 2000). Cell survival was assayed with MTT (Sigma). Apoptosis was detected with annexin V (BD Biosciences), which was performed according to manufacture's instruction. Recombinant Akt and PDK1 were purchased from Upstate Biotechnology Inc.
(§3) Akt is a major pro-growth and pro-survival pathway.
(In general: Tetrazolium assays rely on reduction of a dye to a coloured formazan, in cell work by metabolically active cells.)

The test system of a further data set is OVCAR3. As to the kind of experiment: Cell proliferation MTT assay, OVCAR3. In kind it is cell-based, human. The conditions noted are these: OVCAR3, 24 hours. How it is done:
as §1, §2, §3

A further data set relates to OVACAR3. Nature of the data set: Apoptosis analysis (annexin V and PI, FACScan), OVACAR3. In kind it is cell-based, human. The protocol:
as §1, §2, §3

Another data set concerns OVCA8. As to the kind of experiment: Cell proliferation MTT assay, OVCA8. Format: cell-based, human. The conditions noted are these: OVCA8, 24 hours. The protocol: as §1, §2, §3
Data set [6] relates to Akt. As to the kind of experiment: Immunoblotting of Akt phosphorylation in treated tumor specimens. Conditions: 10 mg/kg/day. In kind it is in vivo, nude mice.
Description: Tumor cells were subcutaneously injected into nude mice with low level of Akt cells on right side and elevated level of Akt cells on left side. […] API-1 treated and untreated tumor specimens were lysed and immunoblotted with indicated antibodies.
Data set [7] in a line: Tolerability observations in xenograft mice. Format: in vivo. The conditions noted are these: 10 mg/kg/day, data not shown. How it is done:
Tumor cells were harvested, resuspended in PBS, and injected subcutaneous (s.c.) into the right and left flanks (2×10^6 cells/flank) of 8-week-old female nude mice as reported previously (Sun et al. 1999). When tumors reached about 100-150 mm^3, animals were randomized and dosed intraperitoneal (i.p.) with vehicle or drug daily. Control animals received dimethylsulfoxide (DMSO) (20%) vehicle and treated animals were injected with API-1 (10 mg/kg/day) in 20% DMSO.
Because API-1 inhibits Akt signaling and induces apoptosis and cell growth arrest in cancer cells with elevated levels of Akt (FIGS. 4A-4G), it was reasoned that the growth of tumors with elevated levels of Akt should be more sensitive to API-1 than that of tumors with low levels of Akt in nude mice. To this end, Akt-overexpressing cells (OVCAR3 and PANC-1) were s.c. implanted into the left flank, and those cell lines that express low levels of Akt (OVCAR5 and COLO357) were s.c. implanted into the right flank of mice. When the tumors reached an average size of about 100-150 mm^3, the animals were randomized and treated i.p. with either vehicle or API-1 (10 mg/kg/day). As illustrated in FIGS. 5A-5J, OVCAR3 and PANC1 tumors treated with vehicle control continued to grow. API-1 inhibited OVCAR3 and PANC1 tumor growth by 70% and 50%, respectively (FIGS. 5C-5F and 5G-5J). In contrast, API-1 had little effect on the growth of OVCAR5 and COLO357 cells in nude mice (FIGS. 5A-5J). At dose 10 mg/kg/day, API-1 had no effects on blood glucose level, body weight, activity and food intake of mice (data not shown).

Another data set relates to MDA-MB-435s cells. As to the kind of experiment: Cell proliferation MTT assay, MDA-MB-435s. Format: cell-based, human. Conditions: 24 hours. How it is done: as §1, §2, §3
Data set [8] concerns Akt. As to the kind of experiment: Immunoblotting with anti-phospho-Akt-S473 antibody in OVCAR3 cells. In kind it is cell-based, human. Conditions: 3 hours, read-out: IC50, phosphorylation level of Akt (phospho-Akt-S473).
Protocol: The cells were treated with API-1 at indicated concentration for 2 hours and subjected to immunoblotting analysis with anti-phospho-Akt-S473 antibodies (top panel).
OVCAR3 cells, which express elevated levels of phosphor-Akt, were treated with different doses of API-1 for 3 hours.
In the next data set the test system is OVCAR3 tumors. As to the kind of experiment: Nude mouse tumor xenograft model, OVCAR3. Format: in vivo, nude mice. Conditions: 10 mg/kg/day i.p.
The test system of data set [9] is MDA-MB-468. As to the kind of experiment: Apoptosis analysis (annexin V and PI, FACScan), MDA-MB-468. In kind it is cell-based, human. The conditions noted are these: MDA-MB-468, annexin V and PI. How it is done:
as §1, §2, §3

For another data set, the system named is OVCAR5. As to the kind of experiment: Cell proliferation MTT assay, OVCAR5. Format: cell-based, human. Conditions: OVCAR5, 24 hours. The protocol: as §1, §2, §3
Data set [10] relates to MDA-MB-468. Nature of the data set: Cell proliferation MTT assay, MDA-MB-468. The conditions noted are these: MDA-MB-468, 24 hours. In kind it is cell-based, human. How it is done: as §1, §2, §3
The subject of a further data set is PKA. As to the kind of experiment: Immunoblotting of PKA phosphorylation in OVCAR3 cells. In kind it is cell-based, human. For orientation: In western blotting, separated proteins are transferred to a membrane and probed.

T1 sequence (P31749 whole entry): as the sequence (P31749 whole entry E17K) above, with K17E counted along it
Description for OVCAR3 tumors: (§5) Tumor cells were subcutaneously injected into nude mice with low level of Akt cells on right side and elevated level of Akt cells on left side.
Description for PANC1 tumors: as §5
Protocol for PKA: FIG. 2D is a graph showing the effect of API-1 on PKA, PKC and PDK kinase activity in living cells. OVCAR3 cells were treated with indicated concentration of API-1 for 1 hour. Cells were lysed and immunoblotted with indicated antibodies.

Consider API-1, for which the “IGF-1 induced plasma membrane translocation of Akt” value at Akt [1] is on record as “inhibits”. The “phospho-Akt levels (S473)” value (in data set [2]; at wild-type Myc-AKT1 [5]) was “inhibit” throughout. The “inhibition of Akt kinase activity, compared with API-2/TCN” value (in data set [3]; at wild-type Myc-AKT1 [4]) was “more potent than API-2/TCN” throughout. Moreover, the “phosphorylation of Akt downstream targets” value in the data set with Akt downstream targets is reported as “inhibited”. The “interference with mTORC1 complex” value on mTORC1 is reported as “did not interfere”. In addition, the “interference with mTORC2 complex” value on mTORC2 is “did not interfere”.

Consider `NC(=O)c1cn(C2OC(CO)C(O)C2O)c2ncnc(N)c2c1=O` (stereo not shown) [API-1], for which the “inhibition of tumor growth” value with PANC1 tumors was 50%; in the data set on OVCAR3 tumors, 70%. Moreover, the “inhibition of cell proliferation” value in the data set with MCF7 is 50-70%; in the data set on OVCAR3 it was 50-70%; in the data set with OVCA8, 50-70%; with MDA-MB-435s cells, 10-30%; with OVCAR5, 10-30%; in the data set with MDA-MB-468 [10] it was 50-70%. In addition, the induction of apoptosis amounted to 9 fold in the data set on OVACAR3 and 4.6 fold with MDA-MB-468 [9]. In addition, in the data set with Akt [6], the “reduction of phosphorylation levels of Akt in treated tumor samples” value was “about 70%”. Further, in data set [7], the activity entry was “no effects”. In addition, in [7], the blood glucose level entry is listed as “no effects”. For the same compound, the body weight result in data set [7] is listed as “no effects”. Moreover, the food intake entry in data set [7] is reported as “no effects”. Besides, the IC50 (usually the concentration that gives 50% inhibition) in the data set with Akt [8] was ~800 nM. Moreover, the “phosphorylation levels of PKA” value in the data set with PKA is recorded as “not inhibited”.
